From ChEMBL document CHEMBL4138084, “Structure-activity relationship study of the tumour-targeting peptide A20FMDV2 via modification of Lys16, Leu13, and N- and/or C-terminal functionality” (Eur J Med Chem, 2017)

Tests used:
[1] = Drug uptake in human A375PPuro cells at 1000 nM after 15 mins by flow cytometric analysis; assay type: ADME, cell-based; settings: 0.25 h, 1 µM
Integrin alpha-V/beta-6 [2] = biological target: T1, Integrin alpha-V/beta-6 (Homo sapiens, UniProt P06756+P18564); experiment: Binding affinity to alphav/beta6 integrin in human A375Pbeta6 cells at 100 nM after 15 mins by flow cytometric analysis relative to biotinylated A20FMDV2; assay type: cell-based
Integrin alpha-V/beta-6 [3] = biological target: T1, Integrin alpha-V/beta-6; experiment: Binding affinity to alphav/beta6 integrin in human A375Pbeta6 cells assessed as drug internalization at 100 nM after 15 mins by flow cytometric analysis relative to biotinylated A20FMDV2; assay type: ADME, cell-based; settings: 0.25 h, 0.1 µM
Target sequence in this assay (P06756 31-889 limits assumed): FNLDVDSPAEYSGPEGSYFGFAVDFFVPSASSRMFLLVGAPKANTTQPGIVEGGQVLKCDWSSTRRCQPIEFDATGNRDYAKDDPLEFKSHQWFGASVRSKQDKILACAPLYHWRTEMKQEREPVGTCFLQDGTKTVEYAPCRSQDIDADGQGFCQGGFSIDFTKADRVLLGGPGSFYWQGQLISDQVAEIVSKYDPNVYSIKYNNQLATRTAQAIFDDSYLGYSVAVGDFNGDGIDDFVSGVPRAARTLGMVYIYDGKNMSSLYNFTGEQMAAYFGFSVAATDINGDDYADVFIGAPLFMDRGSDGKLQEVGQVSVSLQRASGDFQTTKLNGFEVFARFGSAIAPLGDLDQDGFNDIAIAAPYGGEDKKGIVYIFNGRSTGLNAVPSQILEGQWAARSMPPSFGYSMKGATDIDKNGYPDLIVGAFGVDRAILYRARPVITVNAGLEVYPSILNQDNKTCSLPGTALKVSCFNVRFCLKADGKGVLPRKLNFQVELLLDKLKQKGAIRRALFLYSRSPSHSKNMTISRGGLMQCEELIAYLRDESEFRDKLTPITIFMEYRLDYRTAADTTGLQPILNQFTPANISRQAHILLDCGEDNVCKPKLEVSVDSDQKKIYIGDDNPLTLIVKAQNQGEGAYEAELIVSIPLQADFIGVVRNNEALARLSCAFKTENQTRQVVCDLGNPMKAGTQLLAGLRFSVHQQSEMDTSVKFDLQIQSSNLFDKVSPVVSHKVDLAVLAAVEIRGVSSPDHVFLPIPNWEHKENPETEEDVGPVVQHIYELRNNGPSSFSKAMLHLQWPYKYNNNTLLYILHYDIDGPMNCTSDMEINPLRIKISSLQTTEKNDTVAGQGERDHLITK
Target sequence in this assay (P06756 891-1048 limits assumed): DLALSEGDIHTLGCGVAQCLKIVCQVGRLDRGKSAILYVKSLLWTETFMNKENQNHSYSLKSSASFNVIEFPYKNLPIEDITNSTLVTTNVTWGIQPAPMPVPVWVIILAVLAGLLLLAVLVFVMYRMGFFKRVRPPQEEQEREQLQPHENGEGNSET
Target sequence in this assay (P18564 22-788 limits assumed): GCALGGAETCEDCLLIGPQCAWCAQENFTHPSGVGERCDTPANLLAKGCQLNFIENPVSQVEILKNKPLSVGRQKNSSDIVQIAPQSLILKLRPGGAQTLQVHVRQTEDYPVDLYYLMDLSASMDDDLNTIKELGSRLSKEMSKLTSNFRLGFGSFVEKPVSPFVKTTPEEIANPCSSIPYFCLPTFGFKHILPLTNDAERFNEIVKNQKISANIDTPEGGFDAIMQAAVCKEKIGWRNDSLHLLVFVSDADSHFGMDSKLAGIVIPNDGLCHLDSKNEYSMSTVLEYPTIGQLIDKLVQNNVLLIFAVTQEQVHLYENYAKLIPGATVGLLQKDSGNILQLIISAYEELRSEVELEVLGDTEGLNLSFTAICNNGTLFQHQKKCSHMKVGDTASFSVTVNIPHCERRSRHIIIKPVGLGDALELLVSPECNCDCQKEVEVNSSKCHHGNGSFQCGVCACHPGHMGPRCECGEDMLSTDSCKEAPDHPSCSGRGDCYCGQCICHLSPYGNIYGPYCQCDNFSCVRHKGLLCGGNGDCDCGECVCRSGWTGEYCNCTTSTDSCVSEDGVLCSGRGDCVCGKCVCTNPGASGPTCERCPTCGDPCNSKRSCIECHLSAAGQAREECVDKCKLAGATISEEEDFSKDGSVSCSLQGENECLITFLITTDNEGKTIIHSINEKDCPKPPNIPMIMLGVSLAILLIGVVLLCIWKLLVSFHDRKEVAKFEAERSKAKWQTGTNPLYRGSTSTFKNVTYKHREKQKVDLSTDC

Compound | Drug uptake [1] | fold change (FC) (Integrin alpha-V/beta-6 [2]) | fold change (FC) (Integrin alpha-V/beta-6 [3])
CC(C)C[C@H](NC(=O)[C@H](CC(=O)O)NC(=O)CNC(=O)[C@H](CCCNC(=N)N)NC(=O)[C@H](CC(C)C)NC(=O)[C@H](CC(N)=O)NC(=O)[C@@H]1CCCN1C(=O)[C@@H](NC(=O)[C@H](CCCCNC(=O)CCCC[C@@H]1SC[C@@H]2NC(=O)N[C@@H]21)NC(=O)[C@@H](N)CC(N)=O)C(C)C)C(=O)N[C@@H](CCC(N)=O)C(=O)N[C@H](C(=O)N[C@@H](CC(C)C)C(=O)N[C@@H](C)C(=O)N[C@@H](CCC(N)=O)C(=O)N[C@@H](CCCN)C(=O)N[C@H](C(=O)N[C@@H](C)C(=O)N[C@@H](CCCNC(=N)N)C(=O)N[C@H](C(=O)O)[C@@H](C)O)C(C)C)C(C)C | Not Active | 1.12 | 0.86
CC(=O)N[C@@H](CC(N)=O)C(=O)N[C@@H](CCCCNC(=O)CCCC[C@@H]1SC[C@@H]2NC(=O)N[C@@H]21)C(=O)N[C@H](C(=O)N1CCC[C@H]1C(=O)N[C@@H](CC(N)=O)C(=O)N[C@@H](CC(C)C)C(=O)N[C@@H](CCCNC(=N)N)C(=O)NCC(=O)N[C@@H](CC(=O)O)C(=O)N[C@@H](CC(C)C)C(=O)N[C@@H](CCC(N)=O)C(=O)N[C@H](C(=O)N[C@@H](CC(C)C)C(=O)N[C@@H](C)C(=O)N[C@@H](CCC(N)=O)C(=O)N[C@@H](CCCCN)C(=O)N[C@H](C(=O)N[C@@H](C)C(=O)N[C@@H](CCCNC(=N)N)C(=O)N[C@H](C(N)=O)[C@@H](C)O)C(C)C)C(C)C)C(C)C | Not Active | 1.25 | 0.87
CC(C)C[C@H](NC(=O)[C@H](CC(=O)O)NC(=O)CNC(=O)[C@H](CCCNC(=N)N)NC(=O)[C@H](CC(C)C)NC(=O)[C@H](CC(N)=O)NC(=O)[C@@H]1CCCN1C(=O)[C@@H](NC(=O)[C@H](CCCCNC(=O)CCCC[C@@H]1SC[C@@H]2NC(=O)N[C@@H]21)NC(=O)[C@@H](N)CC(N)=O)C(C)C)C(=O)N[C@@H](CCC(N)=O)C(=O)N[C@H](C(=O)N[C@H](C(=O)N[C@@H](C)C(=O)N[C@@H](CCC(N)=O)C(=O)N[C@@H](CCCCN)C(=O)N[C@H](C(=O)N[C@@H](C)C(=O)N[C@@H](CCCNC(=N)N)C(=O)N[C@H](C(=O)O)[C@@H](C)O)C(C)C)C12CC3CC(CC(C3)C1)C2)C(C)C | Not Active | 0.51 | 1.07
CC(C)C[C@H](NC(=O)[C@H](CC(=O)O)NC(=O)CNC(=O)[C@H](CCCNC(=N)N)NC(=O)[C@H](CC(C)C)NC(=O)[C@H](CC(N)=O)NC(=O)[C@@H]1CCCN1C(=O)[C@@H](NC(=O)[C@H](CCCCNC(=O)CCCC[C@@H]1SC[C@@H]2NC(=O)N[C@@H]21)NC(=O)[C@@H](N)CC(N)=O)C(C)C)C(=O)N[C@@H](CCC(N)=O)C(=O)N[C@H](C(=O)N[C@@H](CC(C)C)C(=O)N[C@@H](C)C(=O)N[C@@H](CCC(N)=O)C(=O)N(C)[C@@H](CCCCN)C(=O)N[C@H](C(=O)N[C@@H](C)C(=O)N[C@@H](CCCNC(=N)N)C(=O)N[C@H](C(=O)O)[C@@H](C)O)C(C)C)C(C)C | Not Active | 0.37 | 0.89
CC(C)C[C@H](NC(=O)[C@H](CC(=O)O)NC(=O)CNC(=O)[C@H](CCCNC(=N)N)NC(=O)[C@H](CC(C)C)NC(=O)[C@H](CC(N)=O)NC(=O)[C@@H]1CCCN1C(=O)[C@@H](NC(=O)[C@H](CCCCNC(=O)CCCC[C@@H]1SC[C@@H]2NC(=O)N[C@@H]21)NC(=O)[C@H](CC(N)=O)NC(=O)CNC(=O)CN(CCN(CCN(CC(=O)O)CC(=O)O)CC(=O)O)CC(=O)O)C(C)C)C(=O)N[C@@H](CCC(N)=O)C(=O)N[C@H](C(=O)N[C@@H](CC(C)C)C(=O)N[C@@H](C)C(=O)N[C@@H](CCC(N)=O)C(=O)N[C@@H](CCCCN)C(=O)N[C@H](C(=O)N[C@@H](C)C(=O)N[C@@H](CCCNC(=N)N)C(=O)N[C@H](C(=O)O)[C@@H](C)O)C(C)C)C(C)C | Not Active | 1.28 | 0.97
CC(=O)N(C(=O)CN(CCN(CCN(CC(=O)O)CC(=O)O)CC(=O)O)CC(=O)O)[C@@H](CC(N)=O)C(=O)N[C@@H](CCCCNC(=O)CCCC[C@@H]1SC[C@@H]2NC(=O)N[C@@H]21)C(=O)N[C@H](C(=O)N1CCC[C@H]1C(=O)N[C@@H](CC(N)=O)C(=O)N[C@@H](CC(C)C)C(=O)N[C@@H](CCCNC(=N)N)C(=O)NCC(=O)N[C@@H](CC(=O)O)C(=O)N[C@@H](CC(C)C)C(=O)N[C@@H](CCC(N)=O)C(=O)N[C@H](C(=O)N[C@@H](CC(C)C)C(=O)N[C@@H](C)C(=O)N[C@@H](CCC(N)=O)C(=O)N[C@@H](CCCCN)C(=O)N[C@H](C(=O)N[C@@H](C)C(=O)N[C@@H](CCCNC(=N)N)C(=O)N[C@H](C(=O)O)[C@@H](C)O)C(C)C)C(C)C)C(C)C | Not Active | 1.48 | 1.05

Further lines, results first:

Drug uptake [1] | fold change (FC) (Integrin alpha-V/beta-6 [2]) | fold change (FC) (Integrin alpha-V/beta-6 [3]) | Compound
Not Active | 0.53 | 0.99 | CC(C)C[C@H](NC(=O)[C@H](CC(=O)O)NC(=O)CNC(=O)[C@H](CCCNC(=N)N)NC(=O)[C@H](CC(C)C)NC(=O)[C@H](CC(N)=O)NC(=O)[C@@H]1CCCN1C(=O)[C@@H](NC(=O)[C@H](CCCCNC(=O)CCCC[C@@H]1SC[C@@H]2NC(=O)N[C@@H]21)NC(=O)[C@@H](N)CC(N)=O)C(C)C)C(=O)N[C@@H](CCC(N)=O)C(=O)N[C@H](C(=O)N[C@@H](CC(C)C)C(=O)N[C@@H](C)C(=O)N[C@@H](CCC(N)=O)C(=O)N[C@@H](CCCCN)C(=O)N[C@H](C(=O)N[C@@H](C)C(=O)N[C@@H](CCCNC(=N)N)C(=O)N[C@@H](C(=O)O)[C@H](C)O)C(C)C)C(C)C
Not Active | 0.77 | 1.09 | CCC[C@H](NC(=O)[C@@H](NC(=O)[C@H](CCC(N)=O)NC(=O)[C@H](CC(C)C)NC(=O)[C@H](CC(=O)O)NC(=O)CNC(=O)[C@H](CCCNC(=N)N)NC(=O)[C@H](CC(C)C)NC(=O)[C@H](CC(N)=O)NC(=O)[C@@H]1CCCN1C(=O)[C@@H](NC(=O)[C@H](CCCCNC(=O)CCCC[C@@H]1SC[C@@H]2NC(=O)N[C@@H]21)NC(=O)[C@@H](N)CC(N)=O)C(C)C)C(C)C)C(=O)N[C@@H](C)C(=O)N[C@@H](CCC(N)=O)C(=O)N[C@@H](CCCCN)C(=O)N[C@H](C(=O)N[C@@H](C)C(=O)N[C@@H](CCCNC(=N)N)C(=O)N[C@H](C(=O)O)[C@@H](C)O)C(C)C
Not Active | 1.16 | 1.15 | CCCC[C@H](NC(=O)[C@@H](NC(=O)[C@H](CCC(N)=O)NC(=O)[C@H](CC(C)C)NC(=O)[C@H](CC(=O)O)NC(=O)CNC(=O)[C@H](CCCNC(=N)N)NC(=O)[C@H](CC(C)C)NC(=O)[C@H](CC(N)=O)NC(=O)[C@@H]1CCCN1C(=O)[C@@H](NC(=O)[C@H](CCCCNC(=O)CCCC[C@@H]1SC[C@@H]2NC(=O)N[C@@H]21)NC(=O)[C@@H](N)CC(N)=O)C(C)C)C(C)C)C(=O)N[C@@H](C)C(=O)N[C@@H](CCC(N)=O)C(=O)N[C@@H](CCCCN)C(=O)N[C@H](C(=O)N[C@@H](C)C(=O)N[C@@H](CCCNC(=N)N)C(=O)N[C@H](C(=O)O)[C@@H](C)O)C(C)C
Not Active | 0.6 | 1.03 | CC(C)C[C@H](NC(=O)[C@H](CC(=O)O)NC(=O)CNC(=O)[C@H](CCCNC(=N)N)NC(=O)[C@H](CC(C)C)NC(=O)[C@H](CC(N)=O)NC(=O)[C@@H]1CCCN1C(=O)[C@@H](NC(=O)[C@H](CCCCNC(=O)CCCC[C@@H]1SC[C@@H]2NC(=O)N[C@@H]21)NC(=O)[C@@H](N)CC(N)=O)C(C)C)C(=O)N[C@@H](CCC(N)=O)C(=O)N[C@H](C(=O)N[C@@H](CC(C)(C)C)C(=O)N[C@@H](C)C(=O)N[C@@H](CCC(N)=O)C(=O)N[C@@H](CCCCN)C(=O)N[C@H](C(=O)N[C@@H](C)C(=O)N[C@@H](CCCNC(=N)N)C(=O)N[C@H](C(=O)O)[C@@H](C)O)C(C)C)C(C)C
Not Active | 0.45 | 0.66 | CC(C)CC[C@H](NC(=O)[C@@H](NC(=O)[C@H](CCC(N)=O)NC(=O)[C@H](CC(C)C)NC(=O)[C@H](CC(=O)O)NC(=O)CNC(=O)[C@H](CCCNC(=N)N)NC(=O)[C@H](CC(C)C)NC(=O)[C@H](CC(N)=O)NC(=O)[C@@H]1CCCN1C(=O)[C@@H](NC(=O)[C@H](CCCCNC(=O)CCCC[C@@H]1SC[C@@H]2NC(=O)N[C@@H]21)NC(=O)[C@@H](N)CC(N)=O)C(C)C)C(C)C)C(=O)N[C@@H](C)C(=O)N[C@@H](CCC(N)=O)C(=O)N[C@@H](CCCCN)C(=O)N[C@H](C(=O)N[C@@H](C)C(=O)N[C@@H](CCCNC(=N)N)C(=O)N[C@H](C(=O)O)[C@@H](C)O)C(C)C
Not Active | 0.7 | 0.52 | CCC(CC)[C@H](NC(=O)[C@@H](NC(=O)[C@H](CCC(N)=O)NC(=O)[C@H](CC(C)C)NC(=O)[C@H](CC(=O)O)NC(=O)CNC(=O)[C@H](CCCNC(=N)N)NC(=O)[C@H](CC(C)C)NC(=O)[C@H](CC(N)=O)NC(=O)[C@@H]1CCCN1C(=O)[C@@H](NC(=O)[C@H](CCCCNC(=O)CCCC[C@@H]1SC[C@@H]2NC(=O)N[C@@H]21)NC(=O)[C@@H](N)CC(N)=O)C(C)C)C(C)C)C(=O)N[C@@H](C)C(=O)N[C@@H](CCC(N)=O)C(=O)N[C@@H](CCCCN)C(=O)N[C@H](C(=O)N[C@@H](C)C(=O)N[C@@H](CCCNC(=N)N)C(=O)N[C@H](C(=O)O)[C@@H](C)O)C(C)C
Not Active | 1.11 | 0.78 | CC(C)C[C@H](NC(=O)[C@H](CC(=O)O)NC(=O)CNC(=O)[C@H](CCCNC(=N)N)NC(=O)[C@H](CC(C)C)NC(=O)[C@H](CC(N)=O)NC(=O)[C@@H]1CCCN1C(=O)[C@@H](NC(=O)[C@H](CCCCNC(=O)CCCC[C@@H]1SC[C@@H]2NC(=O)N[C@@H]21)NC(=O)[C@@H](N)CC(N)=O)C(C)C)C(=O)N[C@@H](CCC(N)=O)C(=O)N[C@H](C(=O)N[C@@H](CC(C)C)C(=O)N[C@@H](C)C(=O)N[C@@H](CCC(N)=O)C(=O)N[C@H](CCCCN)C(=O)N[C@H](C(=O)N[C@@H](C)C(=O)N[C@@H](CCCNC(=N)N)C(=O)N[C@H](C(=O)O)[C@@H](C)O)C(C)C)C(C)C
